Experiments:
[1] = tested on: uterus; details: continuous administration from a subcutaneous depot, Martucci et al. 1977; cited from earlier work
[2] = tested on: DBA-1 mice developing collagen induced arthritis (CIA); test: Collagen induced arthritis (CIA) in female DBA-1 mice; assay type: in vivo, mouse
[3] = tested on: human breast cancer cells (MCF-7); details: in vitro cell proliferation, Jozan et al. 1981; cited from earlier work
[4] = intravenous, two adult women, Fishman et al. 1970; cited from earlier work
[5] = tested on: SJL/J mice with experimental autoimmune encephalomyelitis (EAE); test: PLP139-151 induced EAE in SJL/J mice, oral treatment; assay type: in vivo; details: for EAE incidence / mean cumulative EAE score versus vehicle / mean cumulative EAE score: day 0-42; for mean cumulative EAE score: vehicle 17.4±5.0; for clinical EAE score in second phase (relapse): day 26 until day 42; for mean maximal clinical (disability) score: vehicle 1.8±0.3; for mean day of onset of EAE: vehicle day 12
[6] = molecular target: T1, rat uterine cytosol estrogen receptor (Rattus norvegicus, UniProt P06211); details: Martucci et al. 1976; cited from earlier work
T1 construct: rat uterine cytosol estrogen receptor; host or cells: rat uterus, cytosol
T1 sequence (P06211 1-600): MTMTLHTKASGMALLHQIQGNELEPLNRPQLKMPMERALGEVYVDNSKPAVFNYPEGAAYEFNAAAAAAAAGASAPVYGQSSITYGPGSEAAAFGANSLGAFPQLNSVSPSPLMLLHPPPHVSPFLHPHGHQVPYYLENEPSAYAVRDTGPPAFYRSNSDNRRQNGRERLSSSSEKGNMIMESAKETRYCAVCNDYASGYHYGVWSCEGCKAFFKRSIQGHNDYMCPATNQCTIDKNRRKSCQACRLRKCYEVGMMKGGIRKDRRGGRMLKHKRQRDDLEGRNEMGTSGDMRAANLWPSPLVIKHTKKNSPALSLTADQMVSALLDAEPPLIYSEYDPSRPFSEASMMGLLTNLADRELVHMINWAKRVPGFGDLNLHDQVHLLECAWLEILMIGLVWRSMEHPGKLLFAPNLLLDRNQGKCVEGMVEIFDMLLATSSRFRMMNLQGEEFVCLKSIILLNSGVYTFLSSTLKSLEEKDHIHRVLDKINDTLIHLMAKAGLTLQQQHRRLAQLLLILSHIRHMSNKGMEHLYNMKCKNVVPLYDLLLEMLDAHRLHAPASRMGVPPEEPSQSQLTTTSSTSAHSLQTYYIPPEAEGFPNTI

[7] = tested on: male DBA/1 mice with collagen induced arthritis (CIA); test: Collagen induced arthritis (CIA) in male DBA/1 mice, oral treatment; assay type: in vivo, mouse; details: for average day of disease onset (arthritis): vehicle 25.4±0.64
Procedure: The ability of estetrol to alleviate the severity of immune mediated disorders and its possible side-effects were evaluated and compared with dexamethasone in mice developing collagen induced arthritis (CIA), which is another experimental system of autoimmune and chronic inflammatory disease, representing human arthritic diseases, particularly rheumatoid arthritis (RA).
Arthritis was induced in male DBA/1 mice using a two-step immunization protocol (Joosten et al., “Dual role of IL-12 in early and late stages of murine collagen type II arthritis”. J Immunol 1997; 159:4094-4102; Joosten et al., “IL-1β blockade prevents cartilage and bone destruction in murine type II collagen-induced arthritis, whereas TNFα blockade only ameliorates joint inflammation”. J Immunol 1999; 163:5049-55). This strain is highly susceptible to CIA induced with bovine type II collagen. On day 0, mice were immunized with bovine type II collagen (100 μg) emulsified in Freund's complete adjuvant (four subcutaneous injections in the back). On day 21, mice were boosted with an i.p. injection of 100 μg collagen type II diluted in PBS.
The effect of oral treatment with estetrol on collagen-induced arthritis was studied in a 6-week study design. From day 22 until the end of the study (day 42), the animals were treated once daily with vehicle (hydroxypropyl-beta-cyclodextrin in a 20% wt/vol solution in water) serving as negative control or four different dosages of estetrol (3 mg/kg, 1 mg/kg, 0.3 mg/kg and 0.1 mg/kg). Dexamethasone (1 mg/kg), was chosen as a positive control because it is a well studied corticosteroid that reduces swelling and inflammation and is used in a variety of disorders such as skin diseases (psoriasis, hives), allergic conditions, breathing problems, cancer, blood disorders (anemia), digestive problems, eye disorders and for the treatment of arthritis. Although effective as an anti-inflammatory agent, dexamethasone is also known to induce a number of side effects, which amongst others include in humans the induction of osteoporosis, reduced adrenal function, dizziness, nausea, indigestion, increased appetite, weight gain due to enhanced water retention, weakness and/or sleep disturbances. In addition, systemic dexamethasone treatment in rodents results in strong catabolic effects that can be easily observed as weight loss (Orzechowski et al. 2002, “Rats with a glucocorticoid-induced catabolic state show symptoms of oxidative stress and spleen atrophy: the effects of age and recovery”. J Vet Med A Physiol Pathol Clin Med; 49:256-63).
All groups used in the study consisted of 13 mice. During the study animals were weighed and monitored for clinical signs of arthritis. Scoring of disease severity (clinical arthritis score) was performed according to scoring system described by Joosten et al. 1997 (J. Immunol., 159:4094-4102) and Joosten et al. 1999 (J. Immunol., 163:5049-55).
Basic statistical analyses were performed as follows: The significance of differences between all treatment groups in the main clinical outcome parameters was tested using analysis of variance (ANOVA). Each significant ANOVA was followed by post hoc Tukey tests to determine the significance of the difference between each treatment group and the control group. Furthermore, linear regression analysis was used to study the dose-dependency of the effects of treatment with estetrol. All statistical analysis were performed using statistical software program SPSS 10.0 for Windows (SPSS Inc., Chicago, Ill., USA).

[8] = tested on: nonpregnant ewes; details: intravenously administered, Levine et al. 1984; cited from earlier work
[9] = ovariectomized female DBA-1 mice, sc and oral 0.1-3.0 mg/kg/day, 60 days

C[C@]12CC[C@@H]3c4ccc(O)cc4CC[C@H]3[C@@H]1[C@@H](O)[C@@H](O)[C@@H]2O [E4, 1,3,5 (10)-estratrien-3,15α,16α,17β-tetrol]
uterotrophic activity [1]: very weak uterotrophic activity
symptoms and severity of CIA ([2]; non-castrated female DBA-1, daily sc and/or oral): dose-dependently alleviate symptoms and severity of CIA
number of afflicted animals and/or severity of CIA symptoms [2, 9]: dose-dependently reduced
onset of CIA symptoms [2, 9]: dose-dependent effects in delaying the onset of CIA symptoms
agonistic potency relative to 17β-estradiol [3]: 2%
excretion [4]: rapidly and completely excreted in urine as the glucosiduronate
metabolism [4]: virtually no metabolism except for conjugation took place
disease onset of EAE versus vehicle ([5]; oral 0.1 mg/kg/day): trend of delayed disease onset as compared to vehicle-treated mice, but this was not statistically significant
mean maximal clinical score versus vehicle ([5]; oral 0.1 mg/kg/day): did not show statistically significant differences
EAE incidence ([5]; oral 0.1 mg/kg/day): 70%
mean cumulative EAE score versus vehicle ([5]; oral 0.1 mg/kg/day): did not show statistically significant differences
disease onset of EAE versus vehicle ([5]; oral 0.3 mg/kg/day): trend of delayed disease onset as compared to vehicle-treated mice, but this was not statistically significant
mean maximal clinical score versus vehicle ([5]; oral 0.3 mg/kg/day): did not show statistically significant differences
EAE incidence ([5]; oral 0.3 mg/kg/day): 80%
mean cumulative EAE score versus vehicle ([5]; oral 0.3 mg/kg/day): did not show statistically significant differences
EAE incidence ([5]; oral 1 mg/kg/day): 33%
mean cumulative EAE score ([5]; oral 1 mg/kg/day): 3.9±1.8
clinical EAE score in second phase (relapse) ([5]; oral 1 mg/kg/day): little evidence of disease activity
mean maximal clinical (disability) score ([5]; oral 1 mg/kg/day): 0.9±0.3
mean day of onset of EAE ([5]; oral 1 mg/kg/day): 14.7 days
EAE incidence ([5]; oral 3 mg/kg/day): 40%
mean cumulative EAE score ([5]; oral 3 mg/kg/day): 5.8±2.9
clinical EAE score in second phase (relapse) ([5]; oral 3 mg/kg/day): little evidence of disease activity
mean maximal clinical (disability) score ([5]; oral 3 mg/kg/day): 0.8±0.3
mean day of onset of EAE ([5]; oral 3 mg/kg/day): 15.7 days
side-effects (clinical symptoms other than EAE) ([5]; oral once daily 0.1-3 mg/kg, 42 days): did not induce any significant side-effects
relative binding affinity, of 17β-estradiol (100%) [6]: 0.5%
average day of disease onset (arthritis) ([7]; oral 0.1 mg/kg): 25.8 days
average day of disease onset (arthritis) ([7]; oral 0.3 mg/kg): 26.0 days
increase in disease incidence versus vehicle ([7]; oral 1.0 mg and 3.0 mg/kg groups): clearly delayed
average day of disease onset (arthritis) ([7]; oral 1.0 mg/kg): 28.2 days
body weight, % of initial weight (day 21) ([7]; oral 3.0 mg/kg, day 28): 99.3%
body weight, % of initial weight (day 21) ([7]; oral 3.0 mg/kg, day 35): 96.7%
body weight, % of initial weight (day 21) ([7]; oral 3.0 mg/kg, day 42): 97.9%
average day of disease onset (arthritis) ([7]; oral 3.0 mg/kg): 30.7 days
average cumulative arthritis score ([7]; oral 0.1-3 mg/kg, day 21 to 42): dose-dependently reduced and significantly different as compared to vehicle-treated animals
development of macroscopical arthritis score ([7]; oral 0.1-3 mg/kg, day 22-42): dose-dependently reduced
weight loss ([7]; oral, lower three doses (0.1, 0.3 and 1.0 mg/kg)): comparable to the negative and positive control animal groups
potency in uterine vasodilation relative to estriol and 17β-estradiol [8]: 15 to 30 times less potent

Source: patent US7923440B2, “Method of treating or preventing immune mediated disorders and pharmaceutical formulation for use therein” (Pantarhei Bioscience B.V., priority 2002, dated 2011)
